Measurements: US12440496B2, “Natriuretic peptide receptor a agonists useful for the treatment of cardiometabolic diseases, kidney disease and diabetes” (Merck Sharp & Dohme LLC, priority 2019, dated 2025)

Biological target: T1, hNPRA (Homo sapiens, UniProt P16066)
T1 construct: expressed in transfected cells
T1 sequence (P16066 33-1061): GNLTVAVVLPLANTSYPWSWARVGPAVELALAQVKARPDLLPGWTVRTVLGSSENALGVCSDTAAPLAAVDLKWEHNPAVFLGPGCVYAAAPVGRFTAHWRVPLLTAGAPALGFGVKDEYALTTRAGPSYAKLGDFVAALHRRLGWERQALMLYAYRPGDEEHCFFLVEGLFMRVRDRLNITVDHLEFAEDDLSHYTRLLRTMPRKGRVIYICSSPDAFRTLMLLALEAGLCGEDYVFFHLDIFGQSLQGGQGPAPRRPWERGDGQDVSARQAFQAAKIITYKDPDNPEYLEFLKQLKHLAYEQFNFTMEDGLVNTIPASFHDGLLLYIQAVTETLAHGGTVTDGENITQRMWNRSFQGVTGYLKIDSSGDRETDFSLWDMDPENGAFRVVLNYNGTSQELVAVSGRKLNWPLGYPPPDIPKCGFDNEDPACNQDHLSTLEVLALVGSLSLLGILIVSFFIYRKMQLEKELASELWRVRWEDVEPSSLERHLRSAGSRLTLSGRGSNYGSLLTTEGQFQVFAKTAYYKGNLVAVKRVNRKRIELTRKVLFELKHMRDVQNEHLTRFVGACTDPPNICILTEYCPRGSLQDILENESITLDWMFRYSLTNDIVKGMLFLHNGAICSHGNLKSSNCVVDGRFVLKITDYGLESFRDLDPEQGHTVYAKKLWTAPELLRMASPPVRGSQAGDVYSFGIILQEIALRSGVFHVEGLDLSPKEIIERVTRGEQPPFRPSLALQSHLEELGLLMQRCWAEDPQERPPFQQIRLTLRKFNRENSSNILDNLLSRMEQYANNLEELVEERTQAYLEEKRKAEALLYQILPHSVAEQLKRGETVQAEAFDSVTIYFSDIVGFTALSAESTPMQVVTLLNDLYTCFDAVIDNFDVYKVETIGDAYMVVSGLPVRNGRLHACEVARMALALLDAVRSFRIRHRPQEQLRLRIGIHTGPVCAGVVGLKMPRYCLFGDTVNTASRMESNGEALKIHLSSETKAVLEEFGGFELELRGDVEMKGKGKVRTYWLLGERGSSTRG
Assay: NPRA Functional Cell Assay (cGMP HTRF, NPRA HEK JumpIn stable cells)
Assay type: cell-based
Conditions: cGMP production, 1 hour at 37° C., 10-point dose response
Procedure, shortened: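 cGMP HTRF read-out after 1 hour compound treatment at 37° C. of human NPRA-expressing HEK JumpIn cells, 1500 cells/well, in buffer with phosphodiesterase inhibitors IBMX and RO20 (100 uM each). Signal converted to [cGMP] by calibration curve; EC50s fitted by 4-parameter logistic; 50 nM h-ANP as positive response.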

Row | Compound | EC50 [nM]
1 | CC(C)(C)[C@H]1CCc2nc3sc(C(=O)N[C@H](CCN4CC5CC4CO5)c4ccc(-c5ccc(=O)[nH]c5)cc4)cc3cc2C1 (mixture of isomers) [Example 53, rac-(6S)-6-tert-butyl-N-[rac-(1R)-3-(2-oxa-5-azoniabicyclo[2.2. 1]heptan-5-yl)-1-[4-(6-oxo-1H-pyridin-3-yl)phenyl]propyl]-5,6,7,8-tetrahydrothieno[2,3-b]quinoline-2-carboxamide;formate] | 755
2 | CC(C)(C)[C@H]1CCc2nc3sc(C(=O)N[C@H](CCN4CCCCC4)c4ccc(-c5ccc(O)nc5)cc4)cc3cc2C1 (racemic) [Example 32, rac-(6S)-6-tert-butyl-N-[rac-(1R)-1-[4-(6-oxo-1H-pyridin-3-yl)phenyl]-3-piperidin-1-ium-1-yl-propyl]-5,6,7,8-tetrahydrothieno[2,3-b]quinoline-2-carboxamide;formate] | 478
3 | CC1(NC(=O)c2cccc([C@@H](CCN3CCC(C(=O)O)CC3)NC(=O)c3nc4cc5c(nc4s3)CC[C@H](C(C)(C)C)C5)c2)CNC1 (racemic) [Example 125, 1-[rac-(3R)-3-[3-[(3-methylazetidin-1-ium-3-yl)carbamoyl]phenyl]-3-[[rac-(7S)-7-tert-butyl-5,6,7,8-tetrahydrothiazolo [5,4-b]quinoline-2-carbonyl]amino]propyl] piperidine-4-carboxylic acid; 2,2,2-trifluoroacetate] | 2000
4 | CC(C)(C)[C@H]1CCc2nc3sc(C(=O)N[C@H](CCN[C@@H]4C[C@@H](O)[C@@H](O)C4)c4ccc(-c5ccc(=O)[nH]c5)cc4)cc3cc2C1 (racemic) [Example 37, [rac-(3R,4S)-3,4-dihydroxycyclopentyl]-[rac-(3R)-3-[4-(6-oxo-1H-pyridin-3-yl)phenyl]-3-[[rac-(6S)-6-tert-butyl-5,6,7,8-tetrahydrothieno[2,3-b]quinoline-2-carbonyl]amino]propyl] ammonium;formate] | 575
5 | CC(C)(C)[C@H]1CCc2nc3sc(C(=O)N[C@H](CCNC4CCNC4=O)c4ccc(-c5ccc(=O)[nH]c5)cc4)cc3cc2C1 (mixture of isomers) [Example 67, (2-oxopyrrolidin-3-yl)-[rac-(3R)-3-[4-(6-oxo-1H-pyridin-3-yl)phenyl]-3-[rac-(6S)-6-tert-butyl-5,6,7,8-tetrahydrothieno[2,3-b]quinoline-2-carbonyl]amino]propyl] ammonium;formate] | 1800
6 | CC(C)(C)[C@H]1CCc2nc3sc(C(=O)N[C@H](CCN4CCCC(c5cccnc5)C4)c4cccc(NS(C)(=O)=O)c4)cc3cc2C1 (mixture of isomers) [Example 18, ammonium; methylsulfonyl-[3-[rac-(1R)-3-[3-(3-pyridyl)-1-piperidyl]-1-[rac-(6S)-6-tert-butyl-5,6,7,8-tetrahydrothieno[2,3-b]quinoline-2-carbonyl]amino]propyl]phenyl]azanide] | 1280
7 | CC(C)(C)[C@H]1CCc2nc3sc(C(=O)N[C@H](CCN[C@@H]4C[C@H](CO)[C@@H](O)[C@H]4O)c4ccc(-c5ccc(=O)[nH]c5)cc4)cc3cc2C1 (racemic) [Example 62, [rac-(1R,2S,3R,4R)-2,3-dihydroxy-4-(hydroxymethyl)cyclopentyl]-[rac-(3R)-3-[4-(6-oxo-1H-pyridin-3-yl)phenyl]-3-[rac-(6S)-6-tert-butyl-5,6,7,8-tetrahydrothieno[2,3-b]quinoline-2-carbonyl]amino]propyl] ammonium;formate] | 1130
8 | CC(C)(C)[C@H]1CCc2nc3sc(C(=O)N[C@H](CCN4CCC(C(=O)O)CC4)c4ccc(-c5cnc(O)c(F)c5)cc4)nc3cc2C1 [Example 223, 1-((R)-3-((S)-7-(tert-butyl)-5,6,7,8-tetrahydrothiazolo[5,4-b]quinoline-2-carboxamido)-3-(4-(5-fluoro-6-hydroxypyridin-3-yl)phenyl)propyl)piperidine-4-carboxylic acid] | 200
9 | CC(C)(C)[C@H]1CCc2nc3sc(C(=O)N[C@H](CCN4CCC(C(F)F)CC4)c4ccc(-c5ccc(=O)[nH]c5)cc4)cc3cc2C1 (racemic) [Example 60, rac-(6S)-6-tert-butyl-N-[rac-(1R)-3-[4-(difluoromethyl)piperidin-1-ium-1-yl]-1-[4-(6-oxo-1H-pyridin-3-yl)phenyl]propyl]-5,6,7,8-tetrahydrothieno[2,3-b]quinoline-2-carboxamide;formate] | 1010
10 | CN(C)CC[C@@H](NC(=O)c1nc2cc3c(nc2s1)CC[C@H](C(C)(C)C)C3)c1cccc(C(=O)N2CCOCC2)c1 (racemic) [Example 96, rac-(7S)-7-tert-butyl-N-[rac-(1R)-3-(dimethylamino)-1-[3-(morpholine-4-carbonyl)phenyl]propyl]-5,6,7,8-tetrahydrothiazolo[5,4-b] quinoline-2-carboxamide] | 1020

Continued, values first:

Row | EC50 [nM] | Compound
11 | 890 | CN1CC(NC(=O)c2cccc([C@@H](CCN3CCC(O)CC3)NC(=O)c3nc4cc5c(nc4s3)CC[C@H](C(C)(C)C)C5)c2)CCC1=O (mixture of isomers) [Example 158, rac-(7S)-7-tert-butyl-N-[rac-(1R)-3-(4-hydroxy-1-piperidyl)-1-[3-[(1-methyl-6-oxo-3-piperidyl)carbamoyl]phenyl]propyl]-5,6,7,8-tetrahydrothiazolo[5,4-b]quinoline-2-carboxamide]
12 | 563 | CN(C)S(=O)(=O)Nc1ccc([C@@H](CCN2CCCOCC2)NC(=O)c2nc3cc4c(nc3s2)CC[C@H](C(C)(C)C)C4)cn1 (racemic) [Example 205, rac-(7S)-7-tert-butyl-N-[rac-(1R)-1-[6-(dimethylsulfamoylamino)-3-pyridyl]-3-(1,4-oxazepan-4-ium-4-yl)propyl]-5,6,7,8-tetrahydrothiazolo[5,4-b]quinoline-2-carboxamide; 2,2,2-trifluoroacetate]
13 | 553 | CC1(O)CN(C(=O)c2cccc([C@@H](CCN3CCC(O)CC3)NC(=O)c3nc4cc5c(nc4s3)CC[C@H](C(C)(C)C)C5)c2)C1 (racemic) [Example 145, rac-(7S)-7-tert-butyl-N-[rac-(1R)-1-[3-(3-hydroxy-3-methyl-azetidine-1-carbonyl)phenyl]-3-(4-hydroxy-1-piperidyl)propyl]-5,6,7,8-tetrahydrothiazolo[5,4-b]quinoline-2-carboxamide]
14 | 453 | CC(C)(C)[C@H]1CCc2nc3sc(C(=O)N[C@H](CCN4CCC(O)CC4)c4cccc(NS(C)(=O)=O)c4)cc3cc2C1 (racemic) [Example 8, ammonium; methylsulfonyl-[3-[rac-(1R)-3-(4-hydroxy-1-piperidyl)-1-[rac-(6S)-6-tert-butyl-5,6,7,8-tetrahydrothieno[2,3-b]quinoline-2-carbonyl]amino]propyl]phenyl] azanide]
15 | 1700 | CC(C)(C)[C@H]1CCc2nc3sc(C(=O)N[C@H](CCN4CCC(O)CC4)c4ccc(-c5cc(F)c(O)c(F)c5)cc4)nc3cc2C1 (racemic) [Example 184, rac-(7S)-7-tert-butyl-N-[rac-(1R)-1-[4-(3,5-difluoro-4-hydroxy-phenyl)phenyl]-3-(4-hydroxypiperidin-1-ium-1-yl)propyl]-5,6,7,8-tetrahydrothiazolo[5,4-b]quinoline-2-carboxamide; 2,2,2-trifluoroacetate]
16 | 696 | CCS(=O)(=O)c1ccc([C@@H](CCN2CCC(O)CC2)NC(=O)c2nc3cc4c(nc3s2)CC[C@H](C(C)(C)C)C4)cn1 [Example 227, (S)-7-(tert-butyl)-N-((R)-1-(6-(ethylsulfonyl)pyridin-3-yl)-3-(4-hydroxypiperidin-1-yl)propyl)-5,6,7,8-tetrahydrothiazolo[5,4-b]quinoline-2-carboxamide]
